Laboratory results: patent US20050009005A1, “Methods of using quantitative lipid metabolome data” (Lipomics Technologies, Inc., priority 2001, published 2005)

Test system: de novo fatty acid synthesis
Assay: Lipid metabolite profile of plasma, heart, liver and inguinal adipose of CL316,243-treated mice (trial 2; Tables 7 and 8)
Format: in vivo
Conditions: mean
Excerpt: It is understood that the described methods can be used to analyze lipid metabolites from other subjects, including particularly animals other than mice.
Mouse tissue and plasma samples were a generous donation to Lipomics Technologies, Inc., from Dr. Edward Leiter of the Jackson Laboratory (Bar Harbor, Me.). Samples included the plasma, heart, liver and inguinal adipose of mice treated with pharmaceuticals or their corresponding controls.
In trial 2, male, inbred NON mice were fed a control with or without the presence of the β-3 adrenergic agonist CL316,243 for four weeks (at 0.001% CL316,243 by weight in the dietary chow).
In both studies, five treated and five control mice were used. Following the treatments and the killing of the mice, tissues and plasma were taken, chilled to −80 ° C. and shipped to the analysis laboratory at Lipomics Technologies in a frozen state.
Tissue processing and lipid extraction, including provision of internal standards, was carried out essentially as described in Watkins et al. (J. Lipid Res. Papers in Press, 10.1184/jlf.M200169-JLF200, published August 16, 2002), and in co-owned international application PCT/US02/21426, entitled “GENERATING, VIEWING, INTERPRETING, AND UTILIZING A QUANTITATIVE DATABASE OF METABOLITES,” both of which are incorporated in their entirety herein by reference.
The separation of lipid classes was performed in some instance by preparative thin-layer chromatography (TLC). To remove any residual metal or other damaging contaminants on the TLC plates, each plate was washed prior to use. Washing the plates is a three-step process that involves impregnating each plate with ethylenediamine tetraacetic acid (EDTA) and rinsing the plates once with methanol and once with chloroform. Each plate is first impregnated with 1 mM EDTA, pH 5.5, by ascending development using the method of Ruiz (J. Lipid Res. 38, 1482-1489, 1997). After each plate was completely developed, it was dried in air overnight. Once dry, each plate was developed in methanol, dried, and developed in chloroform in the same direction as the development with EDTA. The washed plates were then dried in air. Just prior to use, each plate was activated by heating to 110° C. for 10 minutes.
To prepare the TLC chamber for chromatography, Whatman (Clifton, N.J.) filter paper was cut into 20×80-cm strips and wrapped around the inside wall of a 30×60×10-cm glass development chamber. One hundred milliliters of the appropriate mobile phase was added to the chamber, and the chambers were sealed and allowed to equilibrate. Chambers were considered equilibrated when the solvent front had completely ascended the filter paper. The mobile phase employed for the separation of phospholipid classes (lyso-phospholipids, sphingomyelin, phosphatidylcholine, phosphatidylserine, phosphatidylethanolamine and cardiolipin) was a modification of the solvent system described by Holub and Skeaf (“Nutritional regulation of cellular phosphatidylinositol,” in Methods in Enzymology, ed. Conn, P. M. (Academic Press, Inc., Orlando), pp. 234-243, 1987) consisting of chloroform/methanol/acetic acid/water (100:67:7:4, by volume).
For the separation of neutral lipid classes (free fatty acids, free sterols, triacylglycerides and cholesterol esters), a solvent system consisting of petroleum ether/diethyl ether/acetic acid (80:20:1, by volume) was used (Mangold, Thin Layer Chromatography—A Laboratory Handbook (Springer-Verlag, New York), 1969).
After the TLC plate was activated, the sample extracts were spotted onto the activated plate. As a general rule, samples were spotted at an estimated concentration such that no single lipid class was present at more than 25 jig per centimeter of plate width following chromatography. This ensured that the plate was not overloaded and minimized the risk of cross-contamination between lipid classes (cross-contamination is readily identified during sample analysis as each lipid class contains unique internal standards). […]

Compound: C[C@H](Cc1ccc2c(c1)OC(C(=O)[O-])(C(=O)[O-])O2)NC[C@H](O)c1cccc(Cl)c1.[Na+].[Na+] [CL316,243]
- 16:0 (Heart, PS/I): 302.1 nanomoles per gram
- 16:1n7 (Heart, PS/I): 48.6 nanomoles per gram
- 18:0 (Heart, PS/I): 2823.7 nanomoles per gram
- 18:1n7 (Heart, PS/I): 73.5 nanomoles per gram
- 18:1n9 (Heart, PS/I): 572.9 nanomoles per gram
- 14:0 (Heart, TAG): 78.8 nanomoles per gram
- 16:0 (Heart, TAG): 651.6 nanomoles per gram
- 16:1n7 (Heart, TAG): 57.3 nanomoles per gram
- 18:0 (Heart, TAG): 195.5 nanomoles per gram
- 18:1n7 (Heart, TAG): 28.0 nanomoles per gram
- 18:1n9 (Heart, TAG): 402.8 nanomoles per gram
- 14:0 (Heart, lipid class CE): 5.1 percentage of total fatty acids
- 16:0 (Heart, lipid class CE): 15.4 percentage of total fatty acids
- 16:1n7 (Heart, lipid class CE): 2.9 percentage of total fatty acids
- 18:0 (Heart, lipid class CE): 7.0 percentage of total fatty acids
- 18:1n7 (Heart, lipid class CE): 1.5 percentage of total fatty acids
- 18:1n9 (Heart, lipid class CE): 30.1 percentage of total fatty acids
- Saturates (Heart, lipid class CE): 30.3 percentage of total fatty acids
- Total (Heart, lipid class CE): 100.0 percentage of total fatty acids
- Total n7 (Heart, lipid class CE): 4.4 percentage of total fatty acids
- Total n9 (Heart, lipid class CE): 31.5 percentage of total fatty acids
- 14:0 (Heart, lipid class CL): 0.6 percentage of total fatty acids
- 16:0 (Heart, lipid class CL): 2.0 percentage of total fatty acids
- 16:1n7 (Heart, lipid class CL): 1.7 percentage of total fatty acids
- 18:0 (Heart, lipid class CL): 3.3 percentage of total fatty acids
- 18:1n7 (Heart, lipid class CL): 3.2 percentage of total fatty acids
- 18:1n9 (Heart, lipid class CL): 8.0 percentage of total fatty acids
- Saturates (Heart, lipid class CL): 6.5 percentage of total fatty acids
- Total (Heart, lipid class CL): 25.0 percentage of total fatty acids
- Total n7 (Heart, lipid class CL): 4.9 percentage of total fatty acids
- Total n9 (Heart, lipid class CL): 8.5 percentage of total fatty acids
- 14:0 (Heart, lipid class FFA): 2.9 percentage of total fatty acids
- 16:0 (Heart, lipid class FFA): 17.8 percentage of total fatty acids
- 16:1n7 (Heart, lipid class FFA): 2.3 percentage of total fatty acids
- 18:0 (Heart, lipid class FFA): 7.4 percentage of total fatty acids
- 18:1n7 (Heart, lipid class FFA): 2.2 percentage of total fatty acids
- 18:1n9 (Heart, lipid class FFA): 29.9 percentage of total fatty acids
- Saturates (Heart, lipid class FFA): 29.2 percentage of total fatty acids
- Total (Heart, lipid class FFA): 100.0 percentage of total fatty acids
- Total n7 (Heart, lipid class FFA): 4.5 percentage of total fatty acids
- Total n9 (Heart, lipid class FFA): 30.8 percentage of total fatty acids
- 14:0 (Heart, lipid class PC): 0.3 percentage of total fatty acids
- 16:0 (Heart, lipid class PC): 26.9 percentage of total fatty acids
- 16:1n7 (Heart, lipid class PC): 0.4 percentage of total fatty acids
- 18:0 (Heart, lipid class PC): 17.4 percentage of total fatty acids
- 18:1n7 (Heart, lipid class PC): 1.9 percentage of total fatty acids
- 18:1n9 (Heart, lipid class PC): 6.6 percentage of total fatty acids
- Saturates (Heart, lipid class PC): 45.0 percentage of total fatty acids
- Total (Heart, lipid class PC): 50.0 percentage of total fatty acids
- Total n7 (Heart, lipid class PC): 2.2 percentage of total fatty acids
- Total n9 (Heart, lipid class PC): 6.8 percentage of total fatty acids
- 14:0 (Heart, lipid class PE): 0.1 percentage of total fatty acids
- 16:0 (Heart, lipid class PE): 9.3 percentage of total fatty acids
- 16:1n7 (Heart, lipid class PE): 0.3 percentage of total fatty acids
- 18:0 (Heart, lipid class PE): 26.7 percentage of total fatty acids
- 18:1n7 (Heart, lipid class PE): 1.3 percentage of total fatty acids
- 18:1n9 (Heart, lipid class PE): 4.8 percentage of total fatty acids
- Saturates (Heart, lipid class PE): 36.5 percentage of total fatty acids
- Total (Heart, lipid class PE): 50.0 percentage of total fatty acids
- Total n7 (Heart, lipid class PE): 1.6 percentage of total fatty acids
- Total n9 (Heart, lipid class PE): 5.0 percentage of total fatty acids
- 14:0 (Heart, lipid class PL): 0.3 percentage of total fatty acids
- 16:0 (Heart, lipid class PL): 16.0 percentage of total fatty acids
- 16:1n7 (Heart, lipid class PL): 0.5 percentage of total fatty acids
- 18:0 (Heart, lipid class PL): 19.8 percentage of total fatty acids
- 18:1n7 (Heart, lipid class PL): 1.8 percentage of total fatty acids
- 18:1n9 (Heart, lipid class PL): 6.1 percentage of total fatty acids
- Saturates (Heart, lipid class PL): 37.0 percentage of total fatty acids
- Total (Heart, lipid class PL): 50.0 percentage of total fatty acids
- Total n7 (Heart, lipid class PL): 2.3 percentage of total fatty acids
- Total n9 (Heart, lipid class PL): 6.5 percentage of total fatty acids
- 14:0 (Heart, lipid class PS/I): 0.4 percentage of total fatty acids
- 16:0 (Heart, lipid class PS/I): 3.5 percentage of total fatty acids
- 16:1n7 (Heart, lipid class PS/I): 0.6 percentage of total fatty acids
- 18:0 (Heart, lipid class PS/I): 33.1 percentage of total fatty acids
- 18:1n7 (Heart, lipid class PS/I): 0.9 percentage of total fatty acids
- 18:1n9 (Heart, lipid class PS/I): 6.7 percentage of total fatty acids
- Saturates (Heart, lipid class PS/I): 38.0 percentage of total fatty acids
- Total (Heart, lipid class PS/I): 50.0 percentage of total fatty acids
- Total n7 (Heart, lipid class PS/I): 1.4 percentage of total fatty acids
- Total n9 (Heart, lipid class PS/I): 7.1 percentage of total fatty acids
- 14:0 (Heart, lipid class TAG): 4.1 percentage of total fatty acids
- 16:0 (Heart, lipid class TAG): 34.2 percentage of total fatty acids
- 16:1n7 (Heart, lipid class TAG): 2.9 percentage of total fatty acids
- 18:0 (Heart, lipid class TAG): 10.1 percentage of total fatty acids
- 18:1n7 (Heart, lipid class TAG): 1.5 percentage of total fatty acids
- 18:1n9 (Heart, lipid class TAG): 21.5 percentage of total fatty acids
- Saturates (Heart, lipid class TAG): 51.9 percentage of total fatty acids
- Total (Heart, lipid class TAG): 33.3 percentage of total fatty acids
- Total n7 (Heart, lipid class TAG): 4.4 percentage of total fatty acids
- Total n9 (Heart, lipid class TAG): 22.9 percentage of total fatty acids
- 14:0 (Liver, CE): 45.5 nanomoles per gram
- 16:0 (Liver, CE): 462.8 nanomoles per gram
- 16:1n7 (Liver, CE): 84.4 nanomoles per gram
- 18:0 (Liver, CE): 121.3 nanomoles per gram
- 18:1n7 (Liver, CE): 31.5 nanomoles per gram
- 18:1n9 (Liver, CE): 455.4 nanomoles per gram
- Saturates (Liver, CE): 668.6 nanomoles per gram
- Total n7 (Liver, CE): 115.9 nanomoles per gram
- Total n9 (Liver, CE): 482.4 nanomoles per gram
- Total nMole of FA (Liver, CE): 1764.6 nanomoles per gram
- 14:0 (Liver, CL): 21.3 nanomoles per gram
- 16:0 (Liver, CL): 254.3 nanomoles per gram
- 16:1n7 (Liver, CL): 85.8 nanomoles per gram
- 18:0 (Liver, CL): 260.0 nanomoles per gram
- 18:1n7 (Liver, CL): 215.4 nanomoles per gram
- 18:1n9 (Liver, CL): 437.0 nanomoles per gram
- Saturates (Liver, CL): 556.4 nanomoles per gram
- Total n7 (Liver, CL): 301.2 nanomoles per gram
- Total n9 (Liver, CL): 473.0 nanomoles per gram
- Total nMole of FA (Liver, CL): 1255.5 nanomoles per gram
- 14:0 (Liver, FFA): 152.9 nanomoles per gram
- 16:0 (Liver, FFA): 2280.7 nanomoles per gram
- 16:1n7 (Liver, FFA): 375.0 nanomoles per gram
- 18:0 (Liver, FFA): 460.2 nanomoles per gram
- 18:1n7 (Liver, FFA): 273.5 nanomoles per gram
- 18:1n9 (Liver, FFA): 2293.4 nanomoles per gram
- Saturates (Liver, FFA): 2951.3 nanomoles per gram
- Total n7 (Liver, FFA): 648.5 nanomoles per gram
- Total n9 (Liver, FFA): 2337.2 nanomoles per gram
